The values that follow are results of earlier work, collected in patent publication US5569647A, “Angiopeptin cyclopeptide compounds” (Adir et Compagnie, priority 1993, dated 1996).

The data set relates to cells of the vascular smooth muscle. The conditions noted are these: rat carotid artery, desiccation of the endothelium in air.

For the substance angiopeptin, the “anti-proliferative effect in vivo on cells of the vascular smooth muscle” value is on record as “anti-proliferative effect in vivo”.
